Measurements taken from patent US20250145665A1, “MACROCYCLIC PEPTIDES USEFUL AS MODULATORS OF TNF ALPHA” (Bristol-Myers Squibb Company, priority 2023, published 2025).
Where two headings read alike, the source gives them in different places. Starred links: 1 amine or outer side, 2 acyl side, 3 side chain; linkers in the order of their positions; H or OH if unused. Positions of bridges follow the written chain, without caps; N, C: chain ends. Non-standard residues stand in square brackets, D forms with d. Residues, ends and D or L forms follow the SMILES beside them. *: point of attachment. Bip(4'-NHCO-C6H4-3-CH2COOH) = N[C@@H](Cc1ccc(-c2ccc(NC(=O)c3cccc(CC(=O)O)c3)cc2)cc1)C(=O)O; Bip(4'-NHCO-C6H4-4-CH2COOH) = N[C@@H](Cc1ccc(-c2ccc(NC(=O)c3ccc(CC(=O)O)cc3)cc2)cc1)C(=O)O; dArg(Nω-CH2C6H4-3-CH2Gua) = N=C(N)NCc1cccc(CNC(=N)NCCC[C@@H](N)C(=O)O)c1; Bip(4'-NH) = O=C([C@H](Cc1ccc(-c2ccc(N[*:3])cc2)cc1)N[*:1])[*:2]; dArg(ω-(3-HO-benzyl)) = N=C(NCCC[C@@H](N)C(=O)O)NCc1cccc(O)c1; Indazole3carbonyl(1-CH2COOH) = O=C(O)Cn1nc(C(=O)*)c2ccccc21; Bip(4'-COOH) = N[C@@H](Cc1ccc(-c2ccc(C(=O)O)cc2)cc1)C(=O)O; Indole3carbonyl(1-CH2COOH) = O=C(O)Cn1cc(C(=O)*)c2ccccc21; Ala(imidazol-2-yl) = N[C@@H](Cc1ncc[nH]1)C(=O)O; Ala(morpholin-4-yl) = N[C@@H](CN1CCOCC1)C(=O)O; Benzoyl(3-OCH2COOH) = O=C(O)COc1cccc(C(=O)*)c1; Bip = N[C@@H](Cc1ccc(-c2ccccc2)cc1)C(=O)O; Tic = O=C(O)[C@@H]1Cc2ccccc2CN1; Cha = N[C@@H](CC1CCCCC1)C(=O)O; Sar = CNCC(=O)O

Target: TNFα (Homo sapiens, UniProt P01375)
Test: TNF-Induced HEK-Blue Assay
Assay type: cell-based
[1] = HEK-Blue-CD40L cells, NF-kB-driven secreted alkaline phosphatase reporter, TNFα 0.5 ng/ml, 18 h, read-out: TNF induced HEK-Blue assay IC50 value

TNFα, sequence (P01375 77-233 limits assumed): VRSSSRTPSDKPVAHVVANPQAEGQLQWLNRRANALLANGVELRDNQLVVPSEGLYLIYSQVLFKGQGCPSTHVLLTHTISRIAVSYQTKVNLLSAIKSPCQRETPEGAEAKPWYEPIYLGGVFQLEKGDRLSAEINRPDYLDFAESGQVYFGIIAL

Structure (SMILES)	IC50	IC50 [1]
CC[C@H](C)[C@@H]1NC(=O)[C@@H](CCCNC(=N)NCc2cccc(O)c2)NC(=O)[C@H](CC(=O)O)NC(=O)[C@H](Cc2cnc[nH]2)NC(=O)CN(C)C(=O)[C@H](Cc2ccc(-c3ccc(NC(=O)c4nn(CC(=O)O)c5ccccc45)cc3)cc2)NC(=O)[C@H](Cc2ccc(-c3ccc(C(=O)O)cc3)cc2)NC(=O)[C@H](CC2CCCCC2)NC(=O)CSC[C@@H](C(=O)NCC(N)=O)NC(=O)[C@H](CC(C)C)NC(=O)[C@H](Cc2ncc[nH]2)NC(=O)[C@H](C(C)C)NC(=O)[C@@H]2Cc3ccccc3CN2C1=O [Example 561] ({CH2CO}-[Cha][Bip(4'-COOH)][Bip(4'-NH)](Indazole3carbonyl(1-CH2COOH))[Sar]HD[dArg(ω-(3-HO-benzyl))]I[Tic]V[Ala(imidazol-2-yl)]LCG-NH2; thioether N-13)	< 50 nM	–
CC[C@H](C)[C@@H]1NC(=O)[C@@H](CCCNC(=N)NCc2cccc(O)c2)NC(=O)[C@H](CC(=O)O)NC(=O)[C@H](Cc2cnc[nH]2)NC(=O)CN(C)C(=O)[C@H](Cc2ccc(-c3ccc(NC(=O)c4cccc(CC(=O)O)c4)cc3)cc2)NC(=O)[C@H](Cc2ccc(-c3ccc(C(=O)O)cc3)cc2)NC(=O)[C@H](CC2CCCCC2)NC(=O)CSC[C@@H](C(=O)NCC(N)=O)NC(=O)[C@H](CC(C)C)NC(=O)[C@H](Cc2ncc[nH]2)NC(=O)[C@H](C(C)C)NC(=O)[C@@H]2Cc3ccccc3CN2C1=O [Example 562] ({CH2CO}-[Cha][Bip(4'-COOH)][Bip(4'-NHCO-C6H4-3-CH2COOH)][Sar]HD[dArg(ω-(3-HO-benzyl))]I[Tic]V[Ala(imidazol-2-yl)]LCG-NH2; thioether N-13)	–	50 to 200 nM
CC[C@H](C)[C@@H]1NC(=O)[C@@H](CCCNC(=N)NCc2cccc(O)c2)NC(=O)[C@H](CC(=O)O)NC(=O)[C@H](Cc2cnc[nH]2)NC(=O)CN(C)C(=O)[C@H](Cc2ccc(-c3ccc(NC(=O)c4ccc(CC(=O)O)cc4)cc3)cc2)NC(=O)[C@H](Cc2ccc(-c3ccc(C(=O)O)cc3)cc2)NC(=O)[C@H](CC2CCCCC2)NC(=O)CSC[C@@H](C(=O)NCC(N)=O)NC(=O)[C@H](CC(C)C)NC(=O)[C@H](Cc2ncc[nH]2)NC(=O)[C@H](C(C)C)NC(=O)[C@@H]2Cc3ccccc3CN2C1=O [Example 563] ({CH2CO}-[Cha][Bip(4'-COOH)][Bip(4'-NHCO-C6H4-4-CH2COOH)][Sar]HD[dArg(ω-(3-HO-benzyl))]I[Tic]V[Ala(imidazol-2-yl)]LCG-NH2; thioether N-13)	–	< 50 nM
CC[C@H](C)[C@@H]1NC(=O)[C@@H](CCCNC(=N)NCc2cccc(O)c2)NC(=O)[C@H](CC(=O)O)NC(=O)[C@H](Cc2cnc[nH]2)NC(=O)CN(C)C(=O)[C@H](Cc2ccc(-c3ccc(NC(=O)c4cccc(OCC(=O)O)c4)cc3)cc2)NC(=O)[C@H](Cc2ccc(-c3ccc(C(=O)O)cc3)cc2)NC(=O)[C@H](CC2CCCCC2)NC(=O)CSC[C@@H](C(=O)NCC(N)=O)NC(=O)[C@H](CC(C)C)NC(=O)[C@H](Cc2ncc[nH]2)NC(=O)[C@H](C(C)C)NC(=O)[C@@H]2Cc3ccccc3CN2C1=O [Example 564] ({CH2CO}-[Cha][Bip(4'-COOH)][Bip(4'-NH)](Benzoyl(3-OCH2COOH))[Sar]HD[dArg(ω-(3-HO-benzyl))]I[Tic]V[Ala(imidazol-2-yl)]LCG-NH2; thioether N-13)	–	< 50 nM
CC(C)C[C@@H]1NC(=O)[C@H](CCCNC(=N)N)NC(=O)[C@H](C(C)C)NC(=O)[C@@H]2CCCN2C(=O)[C@H](C(C)C)NC(=O)[C@@H](CCCNC(=N)NCc2cccc(O)c2)NC(=O)[C@H](CC(=O)O)NC(=O)[C@@H]2CCCN2C(=O)CN(C)C(=O)[C@H](Cc2ccc(-c3ccc(NC(=O)c4cn(CC(=O)O)c5ccccc45)cc3)cc2)NC(=O)[C@H](Cc2ccc(-c3ccccc3)cc2)NC(=O)[C@H](CN2CCOCC2)NC(=O)CSC[C@@H](C(=O)NCC(N)=O)NC1=O [Example 565] ({CH2CO}-[Ala(morpholin-4-yl)][Bip][Bip(4'-NH)](Indole3carbonyl(1-CH2COOH))[Sar]PD[dArg(ω-(3-HO-benzyl))]VPVRLCG-NH2; thioether N-13)	< 50 nM	–
CC(C)C[C@@H]1NC(=O)[C@H](CCCNC(=N)N)NC(=O)[C@H](C(C)C)NC(=O)[C@@H]2CCCN2C(=O)[C@H](C(C)C)NC(=O)[C@@H](CCCNC(=N)NCc2cccc(O)c2)NC(=O)[C@H](CC(=O)O)NC(=O)[C@@H]2CCCN2C(=O)CN(C)C(=O)[C@H](Cc2ccc(-c3ccc(NC(=O)c4cccc(CC(=O)O)c4)cc3)cc2)NC(=O)[C@H](Cc2ccc(-c3ccccc3)cc2)NC(=O)[C@H](CN2CCOCC2)NC(=O)CSC[C@@H](C(=O)NCC(N)=O)NC1=O [Example 566] ({CH2CO}-[Ala(morpholin-4-yl)][Bip][Bip(4'-NHCO-C6H4-3-CH2COOH)][Sar]PD[dArg(ω-(3-HO-benzyl))]VPVRLCG-NH2; thioether N-13)	–	< 50 nM
CC(C)C[C@@H]1NC(=O)[C@H](CCCNC(=N)N)NC(=O)[C@H](C(C)C)NC(=O)[C@@H]2CCCN2C(=O)[C@H](C(C)C)NC(=O)[C@@H](CCCNC(=N)NCc2cccc(O)c2)NC(=O)[C@H](CC(=O)O)NC(=O)[C@@H]2CCCN2C(=O)CN(C)C(=O)[C@H](Cc2ccc(-c3ccc(NC(=O)c4ccc(CC(=O)O)cc4)cc3)cc2)NC(=O)[C@H](Cc2ccc(-c3ccccc3)cc2)NC(=O)[C@H](CN2CCOCC2)NC(=O)CSC[C@@H](C(=O)NCC(N)=O)NC1=O [Example 567] ({CH2CO}-[Ala(morpholin-4-yl)][Bip][Bip(4'-NHCO-C6H4-4-CH2COOH)][Sar]PD[dArg(ω-(3-HO-benzyl))]VPVRLCG-NH2; thioether N-13)	–	< 50 nM
CC(C)C[C@@H]1NC(=O)[C@H](CCCNC(=N)N)NC(=O)[C@H](C(C)C)NC(=O)[C@@H]2CCCN2C(=O)[C@H](C(C)C)NC(=O)[C@@H](CCCNC(=N)NCc2cccc(O)c2)NC(=O)[C@H](CC(=O)O)NC(=O)[C@@H]2CCCN2C(=O)CN(C)C(=O)[C@H](Cc2ccc(-c3ccc(NC(=O)c4cccc(OCC(=O)O)c4)cc3)cc2)NC(=O)[C@H](Cc2ccc(-c3ccccc3)cc2)NC(=O)[C@H](CN2CCOCC2)NC(=O)CSC[C@@H](C(=O)NCC(N)=O)NC1=O [Example 568] ({CH2CO}-[Ala(morpholin-4-yl)][Bip][Bip(4'-NH)](Benzoyl(3-OCH2COOH))[Sar]PD[dArg(ω-(3-HO-benzyl))]VPVRLCG-NH2; thioether N-13)	–	< 50 nM
CC(C)C[C@@H]1NC(=O)[C@H](CCCNC(=N)N)NC(=O)[C@H](C(C)C)NC(=O)[C@@H]2CCCN2C(=O)[C@H](C(C)C)NC(=O)[C@@H](CCCNC(=N)NCc2cccc(CNC(=N)N)c2)NC(=O)[C@H](CC(=O)O)NC(=O)[C@@H]2CCCN2C(=O)CN(C)C(=O)[C@H](Cc2ccc(-c3ccc(NC(=O)c4cn(CC(=O)O)c5ccccc45)cc3)cc2)NC(=O)[C@H](Cc2ccc(-c3ccccc3)cc2)NC(=O)[C@H](CN2CCOCC2)NC(=O)CSC[C@@H](C(=O)NCC(N)=O)NC1=O [Example 569] ({CH2CO}-[Ala(morpholin-4-yl)][Bip][Bip(4'-NH)](Indole3carbonyl(1-CH2COOH))[Sar]PD[dArg(Nω-CH2C6H4-3-CH2Gua)]VPVRLCG-NH2; thioether N-13)	< 50 nM	–
